Reference: US5053006A, “Method for the permanent occlusion of arteries” (priority 1990, dated 1991)
Where “and” joins values, the source holds several entries; their conditions need not be identical. Equal entries are not always repeated.

Assays:
[1] = test system: fibrinogen; test: Immunofluorescence study of thrombus composition, fibrinogen; design: species or system rat
Description: Following incubation with primary antibody for one hour, FITC-conjugated goat anti-mouse IgG and goat anti-mouse IgG antibodies (Sigma Chemical Co., St. Louis, Mo.) were used as secondary antibodies for anti-fibrinogen and anti-Factor VIII, respectively. The sections were observed by epi-illumination with a Nikon Microphot-FX microscope.

[2] = test system: corneal neovasculature; type: in vivo, New Zealand white rabbit
Text: Nine New Zealand white strain rabbits weighting 1 to 2 kg were rendered hypercholesterolemic by foods that contained high levels of cholesterol, as described in Stock et. al., Arch. Ophthalmol., 103:726-730, 1985; and Mendelsohn et al., Ophthalmic Surg., 17:502-508, 1986. Eight days after commencement of the high-cholesterol diet, corneal sutures were implanted in both eyes according to the surgical procedure described in Mendelsohn et al., Ophthalmic Surg., 17:502-508, 1986.
On day 22, slit-lamp photographs and fluorescein angiograms were obtained of all corneas (Mendelsohn et al., Arch. Ophthalmol., 105:983-988, 1987, the disclosure of which is hereby incorporated by reference and relied upon). On the next day, one eye of each rabbit underwent laser surgery, with the other eye serving as a comparative control. Rose bengal dye was dissolved at a concentration of 30 mg/ml in 0.9% saline solution. For the initial injection, the dye solution was administered at a total body concentration of 45 mg/kg. For the two animals in which the procedure took longer than 25 minutes, a booster injection of 15 mg/kg was administered. Irradiations of corneal vessels were carried out with an argon ion laser (Model 95, Cooper Laser-Sonica, Sunnyvale, Calif.) operated in the TEM00 mode at 514.5 nm. The beam was directed toward an aluminized mechanical shutter (AW Vincent Associates, Rochester, NY), which reflected it at a right angle through a 514.5-nm custom interference filter with a transmittance of 92% (Omega Optical, Brattleboro, VT) and then through a fused silica lens with a focal length of 7.5 cm for focusing into a 2.5-m fiberoptic cable 400 μm in diameter. In the optical fiber, the gaussian input beam profile was converted into an output beam. The output was collimated by a plano convex lens 3.5 cm in focal length and focused with a plano convex lens with a focal length of 1.0 cm. The lenses were mounted in a beam telescope attached to an X-Y positioning device (Daedal Inc., Harrison City, Pa.). The beam diameter was measured with a calibrated reticle in the ocular of a ×20 operating microscope. By observing, through a 514.5-nm rejection filter, the fluorescence of a white card impregnated with rhodamine B, the minimum diameter of the organe fluorescent spot at the focal point was determined to be 63 μm. Combining the transmission efficiencies of the three uncoated lenses (92% per lens, 76% total transmission) with those of the optical fiber and interference filter yielded a system transmission efficiency of 61.5%. This reduced the incident power level of the laser from 215 mW to an effective power level of 132 mW; this corresponded to an incident intensity at the focal point of 4.23 kW/cm^2 . During shutter closure, irradiations were carried out in 0.2-s intervals. When the shutter was opened, the low-power beam, which was reflected off an optical flat and through the optical system, was used for aligning the next vessel selected for irradiation.
One eye of each rabbit was subjected to laser applications that were directed toward the vascular branching points of the limbal and corneal feeder vessels adjacent to the sites of lipid deposits. The irradiated blood vessel segment was observed through the ×20 operating microcope fitted with the 514.5-nm rejection band interference filter. Initially, the irradiated segment appeared yellow-orange because the fluorescence of rose bengal had been absorbed into erythrocyte plasma membranes and plasma proteins. As platelets accumulated, the fluorescence became yellowish and less intense. The color gradually disappeared due to the exclusion of red blood cells, indicating occlusion of the vessel. A striking event that preceded the thrombus was intense vasoconstriction at the site of irradiation. Constriction of the vessel could be observed following the initial one to three laser shots in each segment. […]

SMILES: O=C([O-])c1c(Cl)c(Cl)c(Cl)c(Cl)c1-c1c2cc(I)c(=O)c(I)c-2oc2c(I)c([O-])c(I)cc12.[Na+].[Na+] [rose bengal]
- fibrinogen in photoinduced MCA thrombi [1]: abundance
- No. of Laser Shots ([2]; 60 mg/kg (45 mg/kg plus booster 15 mg/kg 25 minutes later), individual rabbit): 86 and 106
- treated corneal vessels occluded ([2]; 21 days after laser): about 95%
- fluorescein perfusion ([2]; 21 days after laser, nine treated eyes): complete lack of perfusion
- laser shots required, average ([2]; average): 85 laser shots per quadrant
- laser shots to vessel constriction ([2]; each segment): one to three
- acute and chronic inflammatory cells ([2]; rabbit, in vivo): mild to moderate numbers
- corneal edema or polymorphonuclear leukocyte infiltration ([2]; rabbit, in vivo): does not produce corneal edema or polymorphonuclear leukocyte infiltration
- inflammation along limbal vessels ([2]; rabbit, in vivo): No signs of inflammation
- new vessels formed in response to treatment ([2]; rabbit, in vivo): nor were any new vessels formed
- laser shots required to occlude the corneal neovasculature ([2]; range): 58 to 106 laser shots per quadrant
- times less incident intensity than photocoagulation ([2]; vs photocoagulation): 8.5 times
- times less total light exposure than photocoagulation ([2]; vs photocoagulation): 27.5 times
